In publication PMC9163038 (Scientific Reports, 2022):
Read-outs that look alike come from different tables or passages of the source. Values belong to the molecule of their own block, whether it stands above or below them. Where a SMILES comes first, the peptide text is derived from it. Bridges are numbered along the chain shown (N, C = ends).

Legend:
mouse CCK2R = biological target: T1, mouse CCK2R (Mus musculus, UniProt P56481); test: Inositol-1-phosphate (IP1) accumulation assay (HTRF) in HEK293 cells transiently expressing CCK2R; details: for IP1 formation (fold difference over baseline): positive control, n = 3-4; for Emax: HEK293, read-out: Maximum efficacy (Emax) at the CCK2R; for Antagonism of CCK-8-induced IP1 formation: antagonist 500 nM, preincubated 30 min at 37 °C, CCK-8 10 nM, Fig. S1b, n = 3-5
T1 sequence (P56481 1-453): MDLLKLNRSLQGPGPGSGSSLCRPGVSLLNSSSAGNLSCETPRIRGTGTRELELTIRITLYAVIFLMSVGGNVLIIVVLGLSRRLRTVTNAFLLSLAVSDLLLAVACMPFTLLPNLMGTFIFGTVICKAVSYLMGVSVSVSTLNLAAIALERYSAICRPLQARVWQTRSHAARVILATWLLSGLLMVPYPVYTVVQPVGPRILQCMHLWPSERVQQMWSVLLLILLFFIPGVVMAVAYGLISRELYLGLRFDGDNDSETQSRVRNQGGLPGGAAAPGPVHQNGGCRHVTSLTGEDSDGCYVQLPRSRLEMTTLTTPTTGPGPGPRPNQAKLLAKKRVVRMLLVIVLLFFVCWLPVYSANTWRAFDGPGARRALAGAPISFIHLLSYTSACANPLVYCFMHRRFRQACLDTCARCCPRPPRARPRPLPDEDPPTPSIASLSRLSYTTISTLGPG
Protocol: Human embryonic kidney (HEK293) cells (Ref.[31]) were maintained in a fresh Dulbecco’s modified Eagle’s medium supplemented with 10% fetal bovine serum, 100 U/mL penicillin, and 100 µg/mL streptomycin in a humidified atmosphere of 5% CO2 at 37 °C. 2 mL of cell suspension was poured into each well of a 6-well plate and incubated overnight at 37 °C. After reaching to a confluency of 70–80%, the cells were transfected with a plasmid encoding EGFP-tagged CCK2R using the jetPRIME transfection reagent according to manufacturer’s instructions (Polyplus-transfection, USA).
The receptor-mediated activation of Gq-dependent signaling was measured using a homogenous time-resolved fluorescence (HTRF) based inositol-1-phosphate (IP1) assay kit (Cisbio, France). Approximately 3-6 × 10^4 HEK293 cells expressing the CCK2R were seeded into each well of a 96- or 384-well plate and incubated overnight at 37 °C. […] Antagonists YM-022 and LY225910 (500 nM or 1 µM, both Sigma -Aldrich, Austria) were preincubated at 37 °C for 30 min. After adding IP1-d2 conjugate and anti-IP1 Eu Cryptate according to manufacturers’ instructions, the plate was incubated at room temperature for 3 h. The HTRF measurement was carried out using the FlexStation 3 multi-mode microplate reader with excitation at 330 nm and emissions at 620 and 665 nm.
All experiments were performed in triplicate, analyzed using the GraphPad prism software (GraphPad Software, USA) and expressed as mean ± SD (standard deviation). Pharmacological data of concentration response curves were normalized to the maximal response of CCK-8 detected at the highest concentration. […] Single concentration efficacy data were normalized to baseline (assay buffer) and data were expressed as IP1 formation (fold difference over baseline).

HEK293 cells = test: Cell viability assay (Cell Counting Kit-8); details: 2 h incubation
Protocol: Effect on cell viability of plant extract was measured against the HEK293 cell line using the Cell Counting Kit-8 (VitaScientific, USA). Briefly, 100 µL of medium containing 1 × 10^4 cells was seeded in each well of a 96-well plate and incubated at 37 °C for 24 h. […] Finally, 10 µL of the kit reagent (final concentration of 10%, v/v) was added into each well and incubated at 37 °C for 3 h. Absorbance was measured at 450 nm using the FlexStation 3 multi-mode microplate reader (Molecular Devices, USA). Triton X-100 and medium were used as positive and negative controls, respectively. The cell viability (CV) percentage was calculated using the following equation: CV (%) = (AS/AC) × 100, whereas AS and AC are related to the absorbance of sample and negative control at 450 nm.

[1] = biological target: T2, mouse cholecystokinin-2 receptor, EGFP-tagged (mouse) (UniProt P56481)
T2 sequence: T1 sequence (P56481 1-453)

[2] = biological target: T2, mouse cholecystokinin-2 receptor, EGFP-tagged (mouse); remark: listed apart in the source

Molecule: CSCC[C@H](NC(=O)[C@H](Cc1ccc(OS(=O)(=O)O)cc1)NC(=O)[C@@H](N)CC(=O)O)C(=O)NCC(=O)N[C@@H](Cc1c[nH]c2ccccc12)C(=O)N[C@@H](CCSC)C(=O)N[C@@H](CC(=O)O)C(=O)N[C@@H](Cc1ccccc1)C(N)=O [CCK-8, cholecystokinin-8]
- IP1 formation (fold difference over baseline) (mouse CCK2R; CCK-8 at 1 nM): 0.09 fold difference over baseline
- IP1 formation (fold difference over baseline) (mouse CCK2R; CCK-8 at 3 nM): 0.31 fold difference over baseline
- EC50 (mouse CCK2R; EC50 of CCK-8 alone, CCK-8 alone, Fig. 5b experiment, n = 3): 12.9 nM
- Emax (mouse CCK2R): 100%
- EC50 (mouse CCK2R; SD): 11.5 ± 1.5 nM

Molecule: CC(C)Oc1cccc(-n2c(CCc3c[nH]c4ccc(Br)cc34)nc3ccccc3c2=O)c1 [LY225910]
- Antagonism of CCK-8-induced IP1 formation (mouse CCK2R): did not displace the effects of endogenous ligand CCK-8

Molecule: Cc1cccc(NC(=O)N[C@@H]2N=C(c3ccccc3)c3ccccc3N(CC(=O)c3ccccc3C)C2=O)c1 [YM-022, (R)-1-[2,3-dihydro-1-(2'-methylphenacyl)-2-oxo-5-phenyl-1H-1,4-benzodiazepin-3-yl]-3-(3-methylphenyl) urea]
- Antagonism of CCK-8-induced IP1 formation (mouse CCK2R): significant inhibition of the IP1 formation

Molecule: CC[C@H](C)[C@@H]1NC(=O)[C@@H]2CSSC[C@@H]3NC(=O)[C@H](C(C)C)NC(=O)[C@H](CCCCN)NC(=O)[C@H](CCCCN)NC(=O)[C@H](CCCCN)NC(=O)[C@@H]4CSSC[C@H](NC(=O)[C@H](CO)NC(=O)[C@H](CCC(=O)O)NC(=O)CNC(=O)[C@H](CSSC[C@H](NC(=O)CNC(=O)[C@H]([C@@H](C)CC)NC(=O)[C@H](C(C)C)NC(=O)[C@H]([C@@H](C)O)NC(=O)[C@H](CO)NC1=O)C(=O)N[C@@H](CO)C(=O)N4)NC(=O)[C@@H]1CCCN1C(=O)[C@H]([C@@H](C)CC)NC(=O)[C@H](C(C)C)NC(=O)CNC(=O)[C@H](CC(N)=O)NC(=O)[C@H](CCCNC(=N)N)NC(=O)[C@H](Cc1ccc(O)cc1)NC3=O)C(=O)N[C@@H](C(C)C)C(=O)N[C@@H](Cc1ccccc1)C(=O)N[C@@H]([C@@H](C)CC)C(=O)N1CCC[C@H]1C(=O)N2 [caripe 11] (cyclo(CGESCVFIPCISTVIGCSCKKKVCYRNGVIP); disulfide 1-17, 5-19, 10-24)
- Emax (mouse CCK2R; SD): 71 ± 6.9%
- EC50 (mouse CCK2R; SD): 8500 ± 1700 nM
- Reduction of the EC80 effect of CCK-8 (mouse CCK2R; caripe 11 30 µM co-incubated with CCK-8 70 nM (EC80), Fig. S1a, n = 2): ~ 20%
- Basal activity of the CCK-8 concentration-response curve upon co-treatment (mouse CCK2R; co-treatment with caripe 11 10 µM, increased from 0, Fig. 5b, n = 3): 17%
- Effect on HEK cell viability (HEK293 cells; caripe 11 100 µM): slightly decreased HEK cell viability
- Effect on HEK cell viability (HEK293 cells; caripe 11 ≤ 30 µM): did not have a pronounced effect

- EC50 of IP1 accumulation, CCK-8 alone (control curve of the co-treatment experiment, Fig. 5b) [1]: 12.9 nM
Molecule: cholecystokinin-8 (from UniProt P06307 96-103) (peptide)

- reduction of the IP1 effect of 70 nM (EC80) CCK-8 by co-incubated caripe 11 (3, 10, 30 µM); value at 30 µM [1]: 20%
- EC50 of IP1 accumulation (HTRF) in HEK293 cells transiently expressing CCK2R [2]: 8500 nM
- Emax of IP1 accumulation, normalised to the maximal response of CCK-8 [2]: 71%
B1: caripe 11 (peptide)
peptide: cyclo(GVIPCGESCVFIPCISTVIGCSCKKKVCYRN)
modifications: also: three disulfide bonds, pairing not given here
